Read-outs that look alike come from different tables or passages of the source. Each block holds one molecule with its values, some of them ahead of it.
Columns and labels:
[1] = biological target: human KHK-C (Homo sapiens (Human), UniProt P50053); experiment: KHK Biochemical Assay (IC50), ADP-Glo, KHK-C; details: average of at least two separate assays
How it was run: (§1)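 ADP-Glo luminescence measured ADP made over a 4 h room-temperature reaction of ATP plus fructose, started after 30 min compound–enzyme pre-incubation. Buffer: 50 mM Hepes pH 7.4, 140 mM KCl, 5 mM MgCl2, 0.01% Triton-X. Enzyme was His-tagged, BL21 (DE3)-expressed, Ni-NTA-purified; compounds in 1:3 DMSO dilution series.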

[2] = biological target: human KHK-A (Homo sapiens (Human), UniProt P50053); experiment: KHK Biochemical Assay (IC50), ADP-Glo, KHK-A; details: average of at least two separate assays
Chain of human KHK-A (P50053 other isoform, or with tags, fused parts or gaps): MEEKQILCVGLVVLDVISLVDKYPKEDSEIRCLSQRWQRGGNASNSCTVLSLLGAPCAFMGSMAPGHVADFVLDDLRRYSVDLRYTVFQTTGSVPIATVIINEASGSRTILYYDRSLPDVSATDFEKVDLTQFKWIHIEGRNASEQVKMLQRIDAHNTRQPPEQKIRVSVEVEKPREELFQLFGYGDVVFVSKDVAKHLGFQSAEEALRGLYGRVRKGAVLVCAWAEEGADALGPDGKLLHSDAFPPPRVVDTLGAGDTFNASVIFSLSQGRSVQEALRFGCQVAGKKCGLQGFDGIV
How it was run: as §1

[3] = test system: HepG2 cells; experiment: F1P Cell-Based Assay (EC50), 13C6-fructose-1-phosphate in HepG2 cells (cell culture medium or 50% human plasma)
[4] = biological target: KHK-C expressed in NRK-52E cells (Homo sapiens (Human), UniProt P50053); experiment: KHK-C Cell-based Assay (EC50), NRK CTG, fructose-mediated ATP-depletion
Chain of KHK-C expressed in NRK-52E cells (P50053 whole entry): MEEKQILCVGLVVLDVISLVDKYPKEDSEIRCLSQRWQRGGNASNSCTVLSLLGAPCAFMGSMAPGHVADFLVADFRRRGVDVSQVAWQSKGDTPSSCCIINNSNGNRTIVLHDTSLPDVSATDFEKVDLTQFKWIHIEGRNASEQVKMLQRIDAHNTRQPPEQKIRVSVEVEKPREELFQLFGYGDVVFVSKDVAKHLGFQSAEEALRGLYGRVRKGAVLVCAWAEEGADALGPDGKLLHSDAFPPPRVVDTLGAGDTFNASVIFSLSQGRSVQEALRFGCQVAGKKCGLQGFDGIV

[5] = Homo sapiens, HepG2, HepG2 cells, 50% human plasma, read-out: F1P 50% HP EC50
[6] = Homo sapiens, HepG2, read-out: F1P 10% FBS EC50, HepG2 cells, cell culture medium (10% FBS)
[7] = HepG2 cells, 50% human plasma, read-out: F1P 50% HP EC50
[8] = read-out: F1P 10% FBS EC50, HepG2 cells, cell culture medium (10% FBS)
[9] = read-out: NRK CTG EC50, NRK-52E cells, Cell-Titer Glo, 25 mM fructose
[10] = read-out: NRK CTG EC50, NRK-52E cells, Cell-Titer Glo, 25 mM fructose, 48 hours

Chain of human KHK-C (P50053 whole entry): as above

SMILES: C[C@H]1[C@H](O)CN1c1nc(-c2ccc3c(c2)COC[C@@]32COC(=O)N2)c2c(n1)C(F)(F)CC2 (single isomer, unassigned) [Example 555]
- IC50 [1]: 1.2 nM
- IC50 [2]: 30.5 nM
- EC50 [3, 7]: 117 nM
- EC50 [3, 8]: 59.7 nM
- EC50 [4, 9]: 29 nM

SMILES: C[C@H]1[C@H](O)CN1c1nc(-c2ccc3c(c2)COC[C@]32COC(=O)N2)c2c(n1)C(F)(F)CC2 (single isomer, unassigned) [Example 556]
- IC50 [1]: 26.6 nM
- IC50 [2]: 42.1 nM
- EC50 [3, 5]: > 500 nM
- EC50 [3, 6]: 210 nM
- EC50 [4]: 201 nM

SMILES: CC1OC[C@@]2(COc3cc(-c4nc(N5C[C@@H](O)[C@@H]5C)nc5c4CCC5(F)F)ccc32)NC1=O (single isomer, unassigned) [Example 559]
- IC50 [1]: 0.2 nM
- IC50 [2]: 7.8 nM
- EC50 [3, 7]: 16.3 nM
- EC50 [3, 8]: 5.6 nM
- EC50 [4, 9]: 3.2 nM

SMILES: CCN1C(=O)N[C@@]2(COc3cc(-c4nc(N5C[C@@H](O)[C@@H]5C)nc5c4CCC5(F)F)ccc32)C1=O (single isomer, unassigned) [Example 698]
- IC50 [1]: 5.6 nM
- IC50 [2]: 47.4 nM
- EC50 [3, 7]: 267 nM
- EC50 [3, 8]: 152 nM
- EC50 [4, 9]: 71.5 nM

SMILES: C[C@H]1[C@H](O)CN1c1nc(-c2ccc3c(c2)[S@](=N)(=O)CCO3)c2c(n1)C(F)(F)CC2 (single isomer, unassigned) [Example 820]
- IC50 ([1]; ADP-Glo): 6.2 nM
- IC50 ([2]; ADP-Glo): 14.3 nM
- EC50 [3, 7]: 67.8 nM
- EC50 [3, 8]: 20.3 nM
- EC50 [4, 10]: 26.5 nM

SMILES: C[C@H]1[C@H](O)CN1c1nc(-c2ccc3c(c2)[S@@](=N)(=O)CCO3)c2c(n1)C(F)(F)CC2 (single isomer, unassigned) [Example 821]
- IC50 ([1]; ADP-Glo): 5 nM
- EC50 [3, 7]: 75.4 nM
- EC50 [3, 8]: 20 nM
- EC50 [4, 10]: 42.2 nM

SMILES: C[C@H]1[C@H](O)CN1c1nc(-c2cnc3c(c2)OC[C@@H]3NS(C)(=O)=O)c2c(n1)C(F)(F)CC2 (single isomer, unassigned) [Example 823]
- IC50 ([1]; ADP-Glo): 6.4 nM
- IC50 ([2]; ADP-Glo): 48.2 nM
- EC50 [3, 7]: 216 nM
- EC50 [3, 8]: 90.6 nM
- EC50 [4, 10]: 56.3 nM

SMILES: C[C@H]1CCN1c1nc2c(c(-c3ccc(C4(O)CS(=O)(=O)C4)cc3)n1)CCC2 [Example 451, (S)-3-hydroxy-3-(4-(2-(2-methylazetidin-1-yl)-6,7-dihydro-5H-cyclopenta[d]pyrimidin-4-yl)phenyl)thietane 1,1-dioxide]
- IC50 [1]: 14.1 nM
- EC50 [3, 5]: 333 nM
- EC50 [3, 6]: 77.6 nM
- EC50 [4]: 8.7 nM

SMILES: C[C@H]1CCN1c1nc(-c2ccc([C@@H](N)C(F)F)cc2)c2c(n1)C(F)(F)CC2 [Example 649, (1R)-1-[4-[7,7-difluoro-2-[(2S)-2-methylazetidin-1-yl]-5,6-dihydrocyclopenta[d]pyrimidin-4-yl]phenyl]-2,2-difluoro-ethanamine]
- IC50 [1]: 2.4 nM
- EC50 [3, 5]: 57 nM
- EC50 [3, 6]: 12.9 nM
- EC50 [4]: 8.6 nM

SMILES: C[C@H]1[C@H](O)CN1c1nc(-c2ccc3c(c2)OCCC3NS(C)(=O)=O)c2c(n1)C(F)(F)CC2 (stereo partly drawn) [Example 757, N-[7-[7,7-difluoro-2-[(2S,3R)-3-hydroxy-2-methyl-azetidin-1-yl]-5,6-dihydrocyclopenta[d]pyrimidin-4-yl]chroman-4-yl]methanesulfonamide]
- IC50 [1]: 2.6 nM
- EC50 [3, 5]: 59.7 nM
- EC50 [3, 6]: 20.6 nM
- EC50 [4]: 32.4 nM

SMILES: C[C@H]1[C@H](O)CN1c1nc(-c2cc3c(c(CNS(C)(=O)=O)c2)OCC3)c2c(n1)C(F)(F)CC2 [Example 761, N-[[5-[7,7-difluoro-2-[(2S,3R)-3-hydroxy-2-methyl-azetidin-1-yl]-5,6-dihydrocyclopenta[d]pyrimidin-4-yl]-2,3-dihydrobenzofuran-7-yl]methyl]methanesulfonamide]
- IC50 [1]: 3.3 nM
- EC50 [3, 5]: 129 nM
- EC50 [3, 6]: 28.1 nM
- EC50 [4]: 27.4 nM

Further lines, results first:

- IC50 [1]: 7.6 nM
- IC50 [2]: 14.4 nM
- EC50 [3, 5]: 23.9 nM
- EC50 [3, 6]: 9 nM
- EC50 [4]: 65.4 nM
SMILES: COc1ccc(-c2nc(N3C[C@@H](O)[C@@H]3C)nc3c2CCC3(F)F)cc1[S@](C)(=N)=O (single isomer, unassigned) [Example 496]

- IC50 [1]: 3.8 nM
- IC50 [2]: 4.4 nM
- EC50 [3, 5]: 8.9 nM
- EC50 [3, 6]: 7.3 nM
- EC50 [4]: 18.2 nM
SMILES: C[C@H]1[C@H](O)CN1c1nc(-c2ccc(OC(F)F)c([S@@](C)(=N)=O)c2)c2c(n1)C(F)(F)CC2 (single isomer, unassigned) [Example 533]

- IC50 [1]: 0.1 nM
- IC50 [2]: 5.4 nM
- EC50 [3, 5]: 17.4 nM
- EC50 [3, 6]: 5.4 nM
- EC50 [4]: 3.8 nM
SMILES: C[C@H]1[C@H](O)CN1c1nc(-c2ccc3c(c2)CC[C@@]32COCC(=O)N2)c2c(n1)C(F)(F)CC2 (single isomer, unassigned) [Example 549]

- IC50 [1]: 0.1 nM
- IC50 [2]: 8.6 nM
- EC50 [3, 5]: 23.7 nM
- EC50 [3, 6]: 20.1 nM
- EC50 [4]: 3.7 nM
SMILES: CCN1C(=O)N[C@]2(COc3cc(-c4nc(N5C[C@@H](O)[C@@H]5C)nc5c4CCC5(F)F)ccc32)C1=O (single isomer, unassigned) [Example 697]

- IC50 ([1]; ADP-Glo): 0.3 nM
- IC50 ([2]; ADP-Glo): 12.3 nM
- EC50 [3, 5]: 16.8 nM
- EC50 [3, 6]: 15.7 nM
- EC50 [4]: 4.2 nM
SMILES: C[C@H]1[C@H](O)CN1c1nc(-c2ccc3c(c2)OC[C@@]32NC(=O)N(C)C2=O)c2c(n1)C(F)(F)CC2 (single isomer, unassigned) [Example 826]

- IC50 ([1]; ADP-Glo): 0.9 nM
- IC50 ([2]; ADP-Glo): 4.6 nM
- EC50 [3, 5]: 13.4 nM
- EC50 [3, 6]: 4.8 nM
- EC50 [4]: 2 nM
SMILES: C[C@H]1CCN1c1nc(-c2ccc(C3(N)COC3)cc2)c2c(n1)C(F)(F)CC2 [Example 160, (S)-3-(4-(7,7-difluoro-2-(2-methylazetidin-1-yl)-6,7-dihydro-5H-cyclopenta[d]pyrimidin-4-yl)phenyl)oxetan-3-amine]

- IC50 ([1]; ADP-Glo): 0.8 nM
- EC50 [3, 5]: 49 nM
- EC50 [3, 6]: 9.7 nM
- EC50 [4]: 2.3 nM
SMILES: C[C@H]1CCN1c1nc(-c2ccc3c(c2)OCCNC3=O)c2c(n1)C(F)(F)CC2 [Example 165, (S)-8-(7,7-difluoro-2-(2-methylazetidin-1-yl)-6,7-dihydro-5H-cyclopenta[d]pyrimidin-4-yl)-3,4-dihydrobenzo[f][1,4]oxazepin-5(2H)-one]

- IC50 ([1]; ADP-Glo): 0.9 nM
- IC50 ([2]; ADP-Glo): 1.2 nM
- EC50 [3, 5]: 9.3 nM
- EC50 [3, 6]: 3.9 nM
- EC50 [4]: 2.1 nM
SMILES: C[C@H]1CCN1c1nc2c(c(-c3ccc(C4(N)CCC4)cc3)n1)CCC2 [Example 312, (S)-1-(4-(2-(2-methylazetidin-1-yl)-6,7-dihydro-5H-cyclopenta[d]pyrimidin-4-yl)phenyl)cyclobutan-1-amine]

- IC50 ([1]; ADP-Glo): 4.1 nM
- IC50 ([2]; ADP-Glo): 6.4 nM
- EC50 [3, 5]: 42.9 nM
- EC50 [3, 6]: 27.4 nM
- EC50 [4]: 97.2 nM
SMILES: C[C@H]1[C@H](O)CN1c1nc(-c2cc3c(c(S(N)(=O)=O)c2)OCC3)c2c(n1)C(F)(F)CC2 [Example 351, 5-(7,7-difluoro-2-((2S,3R)-3-hydroxy-2-methylazetidin-1-yl)-6,7-dihydro-5H-cyclopenta[d]pyrimidin-4-yl)-2,3-dihydrobenzofuran-7-sulfonamide]

- IC50 [1]: 1.8 nM
- IC50 [2]: 5.3 nM
- EC50 [3, 5]: 23.8 nM
- EC50 [3, 6]: 7.6 nM
- EC50 [4]: 4.3 nM
SMILES: C[C@H]1[C@H](F)CN1c1nc(-c2ccc(C3(N)COC3)cc2)c2c(n1)C(F)(F)CC2 [Example 468, 3-(4-(7,7-difluoro-2-((2S,3R)-3-fluoro-2-methylazetidin-1-yl)-6,7-dihydro-5H-cyclopenta[d]pyrimidin-4-yl)phenyl)oxetan-3-amine]

- IC50 [1]: 0.2 nM
- EC50 [3, 5]: 50.2 nM
- EC50 [3, 6]: 2.5 nM
- EC50 [4]: 3.4 nM
SMILES: C[C@H]1CCN1c1nc(-c2ccc3c(c2)OC[C@@H]3NS(C)(=O)=O)c2c(n1)C(F)(F)CC2 [Example 528, N—((R)-6-(7,7-difluoro-2-((S)-2-methylazetidin-1-yl)-6,7-dihydro-5H-cyclopenta[d]pyrimidin-4-yl)-2,3-dihydrobenzofuran-3-yl)methanesulfonamide]

- IC50 [1]: 1.2 nM
- EC50 [3, 5]: 27.6 nM
- EC50 [3, 6]: 3.9 nM
- EC50 [4]: 7.1 nM
SMILES: C[C@H]1CCN1c1nc(-c2ccc(C3(N)CC(F)(F)C3)cc2)c2c(n1)C(F)(F)CC2 [Example 648, 1-[4-[7,7-difluoro-2-[(2S)-2-methylazetidin-1-yl]-5,6-dihydrocyclopenta[d]pyrimidin-4-yl]phenyl]-3,3-difluoro-cyclobutanamine]

- IC50 [1]: 0.5 nM
- EC50 [3, 5]: 41 nM
- EC50 [3, 6]: 6.5 nM
- EC50 [4]: 2.2 nM
SMILES: C[C@H]1CCN1c1nc(-c2ccc3c(c2)OCC3NS(C)(=O)=O)c2c(n1)C(F)(F)CC2 (stereo partly drawn) [Example 758, N-[6-[7,7-difluoro-2-[(2S)-2-methylazetidin-1-yl]-5,6-dihydrocyclopenta[d]pyrimidin-4-yl]-2,3-dihydrobenzofuran-3-yl]methanesulfonamide]

- IC50 ([1]; ADP-Glo): 6.3 nM
- EC50 [3, 5]: 41.8 nM
- EC50 [3, 6]: 38.6 nM
- EC50 [4]: 696 nM
SMILES: C[C@H]1[C@H](O)CN1c1nc(-c2ccc3c(c2)O[C@@H](CO)CNC3=O)c2c(n1)C(F)(F)CC2 [Example 808, (R)-8-(7,7-difluoro-2-((2S,3R)-3-hydroxy-2-methylazetidin-1-yl)-6,7-dihydro-5H-cyclopenta[d]pyrimidin-4-yl)-2-(hydroxymethyl)-3,4-dihydrobenzo[f][1,4]oxazepin-5(2H)-one]

Source: patent US12410160B2 (Gilead Sciences, Inc., priority 2021, dated 2025)
